Measured values taken from patent US20240190849A1, “AMINOPYRIMIDINE COMPOUNDS AND METHODS OF THEIR USE” (TYRA BIOSCIENCES, INC., priority 2021, published 2024).

Columns and labels:
Settings in all cases: FGFR binding data
FGFR1 = target: T1, FGFR1 (Homo sapiens, UniProt P11362); assay: Kinase binding assay (kinase-tagged T7 phage, affinity beads, qPCR readout), FGFR1
T1 construct: made in house; host or cells: E. coli derived from BL21, infected with T7 phage
In short: (§1)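 First, streptavidin beads were loaded with biotinylated ligand and blocked. Kinase, beads and compound were then shaken together for 1 hour at room temperature in SeaBlock/PBS/Tween/DTT buffer. Finally, eluted kinase was measured by qPCR and Kd fitted with Hill slope −1.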

FGFR3 (V555M) = target: T2, FGFR3 (V555M) (Homo sapiens, UniProt P22607, V555M); assay: Kinase binding assay (kinase-tagged T7 phage, affinity beads, qPCR readout), FGFR3 (V555M)
T2 construct: made in house; host or cells: E. coli derived from BL21, infected with T7 phage
In short: as §1

FGFR3 = target: T3, FGFR3 (Homo sapiens, UniProt P22607); assay: Kinase binding assay (kinase-tagged T7 phage, affinity beads, qPCR readout), FGFR3
T3 construct: made in house; host or cells: E. coli derived from BL21, infected with T7 phage
In short: as §1

FGFR2 = target: T4, FGFR2 (Homo sapiens, UniProt P21802); assay: Kinase binding assay (kinase-tagged T7 phage, affinity beads, qPCR readout), FGFR2
T4 construct: made in house; host or cells: E. coli derived from BL21, infected with T7 phage
In short: as §1

T3 sequence (P22607 23-806): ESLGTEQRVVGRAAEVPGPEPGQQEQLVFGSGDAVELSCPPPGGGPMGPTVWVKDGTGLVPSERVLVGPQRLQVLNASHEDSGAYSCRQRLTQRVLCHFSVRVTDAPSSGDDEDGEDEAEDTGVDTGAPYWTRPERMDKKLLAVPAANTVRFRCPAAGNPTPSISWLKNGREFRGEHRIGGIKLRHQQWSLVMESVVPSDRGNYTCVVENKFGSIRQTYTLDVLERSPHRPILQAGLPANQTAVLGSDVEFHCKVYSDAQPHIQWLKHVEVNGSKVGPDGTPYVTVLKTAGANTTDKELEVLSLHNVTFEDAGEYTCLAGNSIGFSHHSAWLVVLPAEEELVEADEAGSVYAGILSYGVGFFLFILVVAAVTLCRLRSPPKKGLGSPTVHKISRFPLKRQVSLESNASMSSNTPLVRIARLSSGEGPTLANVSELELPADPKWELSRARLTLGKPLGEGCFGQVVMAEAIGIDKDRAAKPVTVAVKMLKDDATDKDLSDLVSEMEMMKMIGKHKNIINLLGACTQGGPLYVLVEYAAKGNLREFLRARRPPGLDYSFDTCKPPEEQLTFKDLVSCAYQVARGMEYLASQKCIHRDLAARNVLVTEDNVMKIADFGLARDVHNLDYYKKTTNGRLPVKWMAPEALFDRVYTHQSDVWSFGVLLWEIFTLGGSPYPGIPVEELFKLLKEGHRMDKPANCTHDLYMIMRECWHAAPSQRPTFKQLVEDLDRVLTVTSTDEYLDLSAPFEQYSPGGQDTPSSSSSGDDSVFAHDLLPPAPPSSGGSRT
T2 sequence (P22607 23-806 V555M): as the sequence (P22607 23-806) above, with V533M counted along it
T1 sequence (P11362 22-822): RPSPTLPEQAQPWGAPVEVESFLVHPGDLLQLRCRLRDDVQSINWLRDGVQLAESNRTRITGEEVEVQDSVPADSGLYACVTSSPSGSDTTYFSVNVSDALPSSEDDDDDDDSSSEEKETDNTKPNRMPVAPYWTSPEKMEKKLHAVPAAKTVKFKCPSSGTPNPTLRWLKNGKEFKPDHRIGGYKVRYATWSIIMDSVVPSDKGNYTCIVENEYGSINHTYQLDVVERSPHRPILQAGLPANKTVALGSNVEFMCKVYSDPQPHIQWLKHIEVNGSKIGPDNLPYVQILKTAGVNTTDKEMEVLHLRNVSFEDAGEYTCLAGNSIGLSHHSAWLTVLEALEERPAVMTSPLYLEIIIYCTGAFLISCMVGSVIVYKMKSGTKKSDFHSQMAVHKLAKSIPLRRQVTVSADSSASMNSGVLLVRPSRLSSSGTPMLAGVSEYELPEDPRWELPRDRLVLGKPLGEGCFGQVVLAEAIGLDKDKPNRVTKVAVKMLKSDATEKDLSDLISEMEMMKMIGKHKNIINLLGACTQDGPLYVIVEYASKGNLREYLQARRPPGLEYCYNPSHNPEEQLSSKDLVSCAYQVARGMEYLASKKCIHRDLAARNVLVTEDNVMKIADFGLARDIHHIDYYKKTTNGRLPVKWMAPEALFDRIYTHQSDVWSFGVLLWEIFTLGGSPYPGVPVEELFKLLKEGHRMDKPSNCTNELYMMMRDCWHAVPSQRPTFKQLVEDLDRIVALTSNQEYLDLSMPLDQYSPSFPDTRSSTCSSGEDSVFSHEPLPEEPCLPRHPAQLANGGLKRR
T4 sequence (P21802 22-821): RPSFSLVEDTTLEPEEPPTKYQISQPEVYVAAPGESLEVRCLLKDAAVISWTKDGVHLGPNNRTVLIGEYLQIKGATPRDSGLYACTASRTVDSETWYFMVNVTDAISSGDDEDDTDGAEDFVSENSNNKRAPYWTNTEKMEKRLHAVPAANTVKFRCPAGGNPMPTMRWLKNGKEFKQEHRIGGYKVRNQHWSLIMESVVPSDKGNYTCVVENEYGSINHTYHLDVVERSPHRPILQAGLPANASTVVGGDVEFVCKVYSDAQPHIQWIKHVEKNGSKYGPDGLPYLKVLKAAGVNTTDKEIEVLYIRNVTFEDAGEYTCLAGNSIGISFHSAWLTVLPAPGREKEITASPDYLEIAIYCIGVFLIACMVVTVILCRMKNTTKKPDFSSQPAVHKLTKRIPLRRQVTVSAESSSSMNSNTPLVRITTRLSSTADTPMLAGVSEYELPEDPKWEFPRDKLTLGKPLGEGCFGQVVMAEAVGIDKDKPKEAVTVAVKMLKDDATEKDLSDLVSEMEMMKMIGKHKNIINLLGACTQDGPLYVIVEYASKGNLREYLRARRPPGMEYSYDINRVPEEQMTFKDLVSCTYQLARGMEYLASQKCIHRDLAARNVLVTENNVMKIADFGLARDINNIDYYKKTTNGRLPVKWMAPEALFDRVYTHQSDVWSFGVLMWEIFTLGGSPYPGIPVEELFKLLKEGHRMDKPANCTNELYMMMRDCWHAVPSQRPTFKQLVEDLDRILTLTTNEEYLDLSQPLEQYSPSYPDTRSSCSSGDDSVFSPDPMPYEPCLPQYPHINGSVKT

Kd (FGFR1) [nM]	Kd (FGFR3 (V555M)) [nM]	Kd (FGFR3) [nM]	Kd (FGFR2) [nM]	Structure (SMILES)
0.1 to 100	0.1 to 100	100 to 250	250 to 1000	CCC(=O)Nc1ccc2c(ccn2-c2nc(Nc3ccc(N4CCN(C)CC4)cc3)ncc2Cl)c1 [Example 4, N-[1-[5-chloro-2-[4-(4-methylpiperazin-1-yl)anilino]pyrimidin-4-yl]indol-5-yl]propanamide]
100 to 250	0.1 to 100	0.1 to 100	0.1 to 100	Cc1cn(-c2nc(Nc3cnn(C)c3C)ncc2F)c2ncc(NC(=O)/C=C/CN(C)C)cc12 [Example 199, (E)-4-(dimethylamino)-N-[1-[2-[(1,5-dimethylpyrazol-4-yl)amino]-5-fluoro-pyrimidin-4-yl]-3-methyl-pyrrolo[2,3-b]pyridin-5-yl]but-2-enamide]
0.1 to 100	0.1 to 100	0.1 to 100	0.1 to 100	C#CC(=O)Nc1ccc2c(c1)c(C)cn2-c1nc(Nc2ccnn2C)ncc1C [Example 108, N-[3-methyl-1-[5-methyl-2-[(2-methylpyrazol-3-yl)amino]pyrimidin-4-yl]indol-5-yl]prop-2-ynamide]
0.1 to 100	0.1 to 100	0.1 to 100	0.1 to 100	C=CC(=O)Nc1ccc2c(-c3ccnc(Nc4cnn(CC)c4)n3)cn(C)c2c1 [Example 95, N-[3-[2-[(1-ethylpyrazol-4-yl)amino]pyrimidin-4-yl]-1-methyl-indol-6-yl]prop-2-enamide]
0.1 to 100	0.1 to 100	0.1 to 100	0.1 to 100	C=CC(=O)Nc1ccc2c(c1)c(C)cn2-c1nc(Nc2cc(C)sn2)ncc1F [Example 161, N-[1-[5-fluoro-2-[(5-methylisothiazol-3-yl)amino]pyrimidin-4-yl]-3-methyl-indol-5-yl]prop-2-enamide]
250 to 1000	0.1 to 100	100 to 250	0.1 to 100	C=CC(=O)Nc1ccc2c(ccn2-c2nc(Nc3ccc(OCCN4CCOCC4)cc3)ncc2Cl)c1C [Example 21, N-[1-[5-chloro-2-[4-(2-morpholinoethoxy)anilino]pyrimidin-4-yl]-4-methyl-indol-5-yl]prop-2-enamide]
> 1000	100 to 250	> 1000	> 1000	C=CC(=O)Nc1cc2c(C)cn(-c3nc(Nc4ccc(N5CCOCC5)cc4)ncc3Cl)c2cc1C [Example 60, N-[1-[5-chloro-2-(4-morpholinoanilino)-pyrimidin-4-yl]-3,6-dimethyl-indol-5-yl]prop-2-enamide]
250 to 1000	100 to 250	> 1000	> 1000	C=CC(=O)Nc1ccc2c(ccn2-c2nc(Nc3cn(C)nc3OCC)ncc2Cl)c1 [Example 14, N-[1-[5-chloro-2-[(3-ethoxy-1-methyl-pyrazol-4-yl)amino]pyrimidin-4-yl]indol-5-yl]prop-2-enamide]
> 1000	> 1000	> 1000	> 1000	CC#CC(=O)Nc1ccc2c(c1)c(C)cn2-c1nc(Nc2ccnn2C)ncc1F [Example 139, N-[1-[5-fluoro-2-[(2-methylpyrazol-3-yl)amino]pyrimidin-4-yl]-3-methyl-indol-5-yl]but-2-ynamide]
250 to 1000	100 to 250	100 to 250	250 to 1000	C=CC(=O)Nc1ccc2c(c1)c(C)cn2-c1ncnc(Nc2cn(C)nc2C)n1 [Example 220, N-[1-[4-[(1,3-dimethylpyrazol-4-yl)amino]-1,3,5-triazin-2-yl]-3-methyl-indol-5-yl]prop-2-enamide]
0.1 to 100	0.1 to 100	0.1 to 100	0.1 to 100	C=CC(=O)Nc1ccc2c(-c3nc(Nc4ccc(N5CCOCC5)cc4)ncc3C)cn(C)c2c1 [Example 52, N-[1-Methyl-3-[5-methyl-2-(4-morpholinoanilino)pyrimidin-4-yl]indol-6-yl]prop-2-enamide]
100 to 250	0.1 to 100	100 to 250	0.1 to 100	C=CC(=O)Nc1ccc2c(c1)c(C)cn2-c1nc(Nc2cn(C)nc2OC)ncc1C#N [Example 37, N-[1-[5-cyano-2-[(3-methoxy-1-methyl-pyrazol-4-yl)amino]pyrimidin-4-yl]-3-methyl-indol-5-yl]prop-2-enamide]
100 to 250	100 to 250	0.1 to 100	100 to 250	C=CC(=O)Nc1ccc2c(-c3ccnc(Nc4ccn(C)n4)n3)cn(C)c2c1 [Example 92, N-[1-methyl-3-[2-[(1-methylpyrazol-3-yl)amino]pyrimidin-4-yl]indol-6-yl]prop-2-enamide]
100 to 250	0.1 to 100	0.1 to 100	0.1 to 100	C=CC(=O)Nc1ccc2c(c1)c(C)cn2-c1ccnc(Nc2ccnn2C)n1 [Example 82, N-[3-methyl-1-[2-[(2-methylpyrazol-3-yl)amino]pyrimidin-4-yl]indol-5-yl]prop-2-enamide]
> 1000	250 to 1000	250 to 1000	250 to 1000	CC#CC(=O)Nc1ccc2c(-c3ccnc(Nc4cnn(CCO)c4)n3)cn(C)c2c1 [Example 145, N-[3-[2-[[1-(2-hydroxyethyl)pyrazol-4-yl]amino]pyrimidin-4-yl]-1-methyl-indol-6-yl]but-2-ynamide]
> 1000	> 1000	> 1000	> 1000	C=CC(=O)Nc1ccc2c(c1)c(C)cn2-c1nc(Nc2c(C)cccc2OCC)ncc1Cl [Example 29, N-[1-[5-chloro-2-(2-ethoxy-6-methyl-anilino)pyrimidin-4-yl]-3-methyl-indol-5-yl]prop-2-enamide]
0.1 to 100	0.1 to 100	0.1 to 100	0.1 to 100	C=CC(=O)Nc1ccc2c(c1)c(C)cn2-c1nc(Nc2ccn(C3CC3)n2)ncc1C [Example 99, N-[1-[2-[(1-cyclopropylpyrazol-3-yl)amino]-5-methyl-pyrimidin-4-yl]-3-methyl-indol-5-yl]prop-2-enamide]
0.1 to 100	0.1 to 100	0.1 to 100	0.1 to 100	C#CC(=O)Nc1ccc2c(-c3ccnc(Nc4cnn(CCO)c4)n3)cn(C)c2c1 [Example 143, N-[3-[2-[[1-(2-hydroxyethyl)pyrazol-4-yl]amino]pyrimidin-4-yl]-1-methyl-indol-6-yl]prop-2-ynamide]
> 1000	250 to 1000	100 to 250	250 to 1000	C=CC(=O)Nc1ccc2c(c1)c(C)cn2-c1cc(Nc2cnn(C)c2)ncn1 [Example 219, N-[3-methyl-1-[6-[(1-methylpyrazol-4-yl)amino]pyrimidin-4-yl]indol-5-yl]prop-2-enamide]
0.1 to 100	0.1 to 100	0.1 to 100	0.1 to 100	C=CC(=O)Nc1ccc2c(c1)c(C)cn2-c1nc(Nc2cn(C(C)(C)C#N)nc2C)ncc1F [Example 159, N-[1-[2-[[1-(1-cyano-1-methyl-ethyl)-3-methyl-pyrazol-4-yl]amino]-5-fluoro-pyrimidin-4-yl]-3-methyl-indol-5-yl]prop-2-enamide]
0.1 to 100	0.1 to 100	0.1 to 100	0.1 to 100	C=CC(=O)Nc1ccc2c(c1)c(C)cn2-c1nc(Nc2cn(CCOC)nc2C)ncc1F [Example 202, N-[1-[5-fluoro-2-[[1-(2-methoxyethyl)-3-methyl-pyrazol-4-yl]amino]pyrimidin-4-yl]-3-methyl-indol-5-yl]prop-2-enamide]
0.1 to 100	0.1 to 100	0.1 to 100	0.1 to 100	C#CC(=O)Nc1cnc2c(c1)c(C)cn2-c1nc(Nc2cnn(CCO)c2)ncc1C [Example 141, N-[1-[2-[[1-(2-hydroxyethyl)pyrazol-4-yl]amino]-5-methyl-pyrimidin-4-yl]-3-methyl-pyrrolo[2,3-b]pyridin-5-yl]prop-2-ynamide]
> 1000	> 1000	> 1000	> 1000	C=CC(=O)Nc1ccc2c(c1)c(C)cn2-c1cc(Nc2cn(C)nc2C)ncn1 [Example 222, N-[1-[6-[(1,3-dimethylpyrazol-4-yl)amino]pyrimidin-4-yl]-3-methyl-indol-5-yl]prop-2-enamide]
0.1 to 100	0.1 to 100	0.1 to 100	0.1 to 100	C=CC(=O)Nc1ccc2c(c1)c(C)cn2-c1nc(Nc2cnn(C[C@@H](C)O)c2C)ncc1F [Example 216, N-[1-[5-fluoro-2-[[1-[(2R)-2-hydroxypropyl]-5-methyl-pyrazol-4-yl]amino]pyrimidin-4-yl]-3-methyl-indol-5-yl]prop-2-enamide]
0.1 to 100	0.1 to 100	0.1 to 100	0.1 to 100	C#CC(=O)Nc1cnc2c(c1)c(C)cn2-c1nc(Nc2cnn(CCO)c2)ncc1F [Example 133, N-[1-[5-fluoro-2-[[1-(2-hydroxyethyl)pyrazol-4-yl]amino]pyrimidin-4-yl]-3-methyl-pyrrolo[2,3-b]pyridin-5-yl]prop-2-ynamide]
> 1000	250 to 1000	> 1000	250 to 1000	CC#CC(=O)Nc1ccc2c(c1)c(C)cn2-c1nc(Nc2ccnn2C)ncc1C [Example 130, N-[3-methyl-1-[5-methyl-2-[(2-methylpyrazol-3-yl)amino]pyrimidin-4-yl]indol-5-yl]but-2-ynamide]
0.1 to 100	0.1 to 100	0.1 to 100	0.1 to 100	C=CC(=O)Nc1ccc2c(c1)c(C)cn2-c1ccnc(Nc2cnn(C)c2)n1 [Example 79, N-[3-methyl-1-[2-[(1-methylpyrazol-4-yl)amino]pyrimidin-4-yl]indol-5-yl]prop-2-enamide]
0.1 to 100	0.1 to 100	0.1 to 100	0.1 to 100	C=CC(=O)Nc1ccc2c(c1)c(C)cn2-c1cc(Nc2cnn(C)c2)ncc1C [Example 223, N-[3-methyl-1-[5-methyl-2-[(1-methylpyrazol-4-yl)amino]-4-pyridyl]indol-5-yl]prop-2-enamide]
